Consider ten molecules from patent US20260007681A1, “INDOLE DERIVATIVES AS ESTROGEN RECEPTOR DEGRADERS” (REGENTS OF THE UNIVERSITY OF MICHIGAN, priority 2022, published 2026).

In one test the target is ER in MCF-7 cells (Homo sapiens (Human), UniProt P03372). Description: In-cell western (ICW) ER degradation assay in MCF-7 cells (Compounds A1-A70). As to conditions: for DC50: ER degradation, 0.02 to 300 nM, read-out: MCF7 ICW DC50; for MCF7 ICW Dmax (%): maximal ER degradation. Type of test: cell-based.
Chain of ER in MCF-7 cells (P03372 whole entry): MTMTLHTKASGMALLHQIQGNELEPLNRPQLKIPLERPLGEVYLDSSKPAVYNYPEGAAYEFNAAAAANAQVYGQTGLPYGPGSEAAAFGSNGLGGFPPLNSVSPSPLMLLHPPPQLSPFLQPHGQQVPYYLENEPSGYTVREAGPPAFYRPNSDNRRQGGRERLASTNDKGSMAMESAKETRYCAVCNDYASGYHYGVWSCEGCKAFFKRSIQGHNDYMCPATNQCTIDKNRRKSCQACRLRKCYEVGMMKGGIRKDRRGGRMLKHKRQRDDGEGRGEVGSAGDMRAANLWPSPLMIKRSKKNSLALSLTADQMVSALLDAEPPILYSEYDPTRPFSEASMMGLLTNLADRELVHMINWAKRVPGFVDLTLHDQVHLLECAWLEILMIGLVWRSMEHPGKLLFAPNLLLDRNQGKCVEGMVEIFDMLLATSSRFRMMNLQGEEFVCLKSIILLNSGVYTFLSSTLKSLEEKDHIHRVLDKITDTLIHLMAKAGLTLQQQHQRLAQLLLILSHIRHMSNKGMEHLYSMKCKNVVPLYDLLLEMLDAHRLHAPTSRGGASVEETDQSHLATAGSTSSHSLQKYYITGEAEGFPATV
The next test deals with ERα_LBD(GST) (Homo sapiens (Human), UniProt P03372). Kind of test: IC50 measurements for binding to ERα_LBD (GST), LanthaScreen TR-FRET ERα competitive binding assay. As to conditions: 4 nM ERα_LBD(GST), 3 nM Fluormone ES2 Green tracer, 60 min; read-out: ERα HTRF IC50. The protocol: • 1. ERα_LBD(GST) protein: 4 nM • 2. Tb Anti-GST: 2 nM • 3. Fluormone ES2 Green tracer: 3 nM • 4. Incubation time: 60 min • 5. DMSO: 1% • 6. Assay buffer: Adding 1M DTT to Nuclear receptor Buffer K for final 5 mM DTT. • 7. ZPE: 1% DMSO • 8. HPE: 1 μM ARV_471 • 9. LanthaScreen® TR-FRET ERα Competitive Binding Assay (ThermoFisher, #A15887)
Chain of ERα_LBD(GST) (P03372 311-547): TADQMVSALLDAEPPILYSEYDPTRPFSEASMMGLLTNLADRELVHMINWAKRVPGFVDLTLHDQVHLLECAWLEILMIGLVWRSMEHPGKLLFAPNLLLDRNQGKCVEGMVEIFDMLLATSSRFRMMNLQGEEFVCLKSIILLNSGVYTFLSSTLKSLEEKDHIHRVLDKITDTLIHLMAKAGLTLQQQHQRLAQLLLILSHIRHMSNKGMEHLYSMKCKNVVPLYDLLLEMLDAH
• 1) Cherry pick 2 μL 10 mM compound stock to column 1 of a 384 intermediate plate • 2) Add 18 μL DMSO to column 1 to dilute compound to 1 mM. • 3) Transfer 10 μL 1 mM compound to column 1 of a LDV plate. • 4) Add 6 μl DMSO to column 2-10 of the LDV plate. • 5) Compounds undergo 3-fold serial dilution (3 μL+6 μL) in DMSO. • 6) Transfer 120 nL compound solution to assay plate. • ZPE: 120 nL 100% DMSO
Prepare complete nuclear receptor buffer K by adding 1 M DTT to nuclear receptor buffer K for a final concentration of 5 mM DTT. Complete nuclear receptor buffer K must be prepared fresh daily. Prepare 2X protein solution using complete nuclear receptor buffer K containing 8 nM ERα_LBD(GST) and 4 nM Tb Anti-GST. Then, prepare 2× Fluormone ES2 Green tracer (6 nM) using complete nuclear receptor buffer K. Add 6 μL 2× Fluormone ES2 green tracer into a compound plate (PerkinElmer 6008289) by dragonfly with one-tips-addition. Subsequently, add 6 μL 2× protein solution into the plate. Briefly and gently mix the 384-well plate on a plate shaker and incubate at room temperature protected from light for 60 min. The plate is sealed with a cover to minimize evaporation. Read the plate at wavelengths of 520 nm and 495 nm. Calculate the TR-FRET ratio by dividing the emission signal at 520 nm by the emission signal at 495 nm. Generate a binding curve by plotting the emission ratio vs. the log [ligand]. To determine the IC50 value, fit the data using XL-fit for a sigmoidal dose-response.
(In general: TR-FRET usually uses a lanthanide donor and a delayed reading to cut background.)

A further test deals with CRBN/DDB1 (Homo sapiens (Human), UniProt Q96SW2). The class given is binding. As to conditions: His tagged CRBN+DDB-DLS7+CXU4, Cy5-labeled Thalidomide probe, one hour incubation; read-out: CRBN HTRF IC50. The protocol: The binding potency was determined using H-TRF assay technology (Perkin Elmer). Compounds were serially diluted in DMSO and 0.2 μL volume was transferred to white 384-well plate.
Chain of CRBN/DDB1 (Q96SW2 whole entry): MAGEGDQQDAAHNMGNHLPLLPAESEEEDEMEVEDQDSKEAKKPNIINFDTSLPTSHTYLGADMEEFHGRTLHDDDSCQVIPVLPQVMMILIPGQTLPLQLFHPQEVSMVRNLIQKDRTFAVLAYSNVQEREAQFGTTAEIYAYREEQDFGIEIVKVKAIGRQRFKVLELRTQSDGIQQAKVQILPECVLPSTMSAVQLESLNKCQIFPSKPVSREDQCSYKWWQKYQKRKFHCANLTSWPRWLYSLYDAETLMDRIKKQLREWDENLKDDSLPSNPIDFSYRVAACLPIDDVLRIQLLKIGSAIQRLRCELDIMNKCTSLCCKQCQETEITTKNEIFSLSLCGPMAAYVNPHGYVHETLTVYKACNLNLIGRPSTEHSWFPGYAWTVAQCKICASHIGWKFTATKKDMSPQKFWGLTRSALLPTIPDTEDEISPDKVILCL
Chain of CRBN/DDB1 (Q16531 whole entry partner): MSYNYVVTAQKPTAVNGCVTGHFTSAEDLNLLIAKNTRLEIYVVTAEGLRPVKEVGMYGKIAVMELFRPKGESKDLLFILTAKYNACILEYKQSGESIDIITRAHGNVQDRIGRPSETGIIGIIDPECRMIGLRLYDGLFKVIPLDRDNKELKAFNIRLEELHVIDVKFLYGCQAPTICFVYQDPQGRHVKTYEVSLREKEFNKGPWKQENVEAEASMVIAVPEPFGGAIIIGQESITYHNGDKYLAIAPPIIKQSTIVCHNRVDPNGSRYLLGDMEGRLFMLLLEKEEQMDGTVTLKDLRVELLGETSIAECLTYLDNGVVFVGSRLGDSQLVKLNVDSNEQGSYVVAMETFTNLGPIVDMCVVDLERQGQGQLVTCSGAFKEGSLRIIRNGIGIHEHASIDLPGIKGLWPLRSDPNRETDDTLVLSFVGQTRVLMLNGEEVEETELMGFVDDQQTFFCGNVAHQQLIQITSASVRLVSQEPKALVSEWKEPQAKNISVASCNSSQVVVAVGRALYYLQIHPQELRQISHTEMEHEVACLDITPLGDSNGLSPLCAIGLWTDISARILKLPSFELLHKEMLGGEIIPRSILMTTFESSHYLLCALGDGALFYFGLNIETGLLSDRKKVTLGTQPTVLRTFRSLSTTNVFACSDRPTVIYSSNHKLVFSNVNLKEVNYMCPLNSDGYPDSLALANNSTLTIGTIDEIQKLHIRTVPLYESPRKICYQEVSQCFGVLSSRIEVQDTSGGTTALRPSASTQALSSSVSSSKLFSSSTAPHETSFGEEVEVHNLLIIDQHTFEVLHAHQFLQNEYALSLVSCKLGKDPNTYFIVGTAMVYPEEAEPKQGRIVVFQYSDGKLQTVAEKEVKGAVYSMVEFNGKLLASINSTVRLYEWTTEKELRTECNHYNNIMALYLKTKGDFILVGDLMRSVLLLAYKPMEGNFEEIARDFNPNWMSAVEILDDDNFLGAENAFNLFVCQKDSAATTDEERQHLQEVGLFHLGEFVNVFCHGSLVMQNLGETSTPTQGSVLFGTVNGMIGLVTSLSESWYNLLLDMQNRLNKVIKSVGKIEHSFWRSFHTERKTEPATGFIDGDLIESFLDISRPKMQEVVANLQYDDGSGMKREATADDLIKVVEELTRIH

Another test addresses ER in T47D cells (Homo sapiens (Human), UniProt P03372). Kind of test: In-cell western (ICW) ER degradation assay in T47D cells (Compounds A1-A70). Type of test: cell-based. As to conditions: for DC50: ER degradation, 0.02 to 300 nM; for Dmax: T47D, read-out: T47D ICW Dmax (%).
[1] abbreviates: MCF7, maximal ER degradation, MCF-7 cells, 16 hrs treatment, read-out: MCF7 ICW Dmax (%).
Setting [2] is: maximal ER degradation, T47D cells, 16 hrs treatment.
Where [3] appears, read: MCF7, read-out: MCF7 ICW Dmax (%).

Molecules are shown by their SMILES. Where a name gives a salt, the structure may show the parent alone. Read-outs that look alike come from different tables or passages of the source.

Chain of ER in T47D cells (P03372 whole entry): as the sequence (P03372 whole entry) above

Usually DC50 stands for the concentration giving 50% degradation. By IC50 is commonly meant the concentration at which inhibition is half-maximal. As for `COc1cc(N2CCC(CN3CCN4c5ccc6c(c5OC[C@@H]4C3)CN([C@H]3CCC(=O)NC3=O)C6=O)CC2)ccc1[C@@H]1c2[nH]c3ccccc3c2C[C@@H](C)N1CC(F)F` [Compound A12, (S)-3-((S)-7-((1-(4-((1R,3R)-2-(2,2-difluoroethyl)-3-methyl-2,3,4,9-tetrahydro-1H-pyrido[3,4-b]indol-1-yl)-3-methoxyphenyl)piperidin-4-yl)methyl)-1-oxo-1,3,5,5a,6,7,8,9-octahydro-2H-pyrazino[1′,2′:4,5][1,4]oxazino[2,3-e]isoindol-2-yl)piperidine-2,6-dione], on ER in MCF-7 cells (MCF-7 cells, 16 hrs treatment), the DC50 was less than 1 nM; the “MCF7 ICW Dmax (%)” value is “B (“B”: >50% and <75%)”. The half-maximal inhibitory concentration (IC50) at ERα_LBD(GST) is less than 10 nM.
One may read the Dmax as the greatest extent of degradation seen. For `COc1cc(N2CCC(CN3CCN4c5ccc6c(c5OC[C@H]4C3)CN([C@H]3CCC(=O)NC3=O)C6=O)CC2)ccc1[C@@H]1c2[nH]c3ccccc3c2C[C@@H](C)N1CC(F)F` [Compound A19, (S)-3-((R)-7-((1-(4-((1R,3R)-2-(2,2-difluoroethyl)-3-methyl-2,3,4,9-tetrahydro-1H-pyrido[3,4-b]indol-1-yl)-3-methoxyphenyl)piperidin-4-yl)methyl)-1-oxo-1,3,5,5a,6,7,8,9-octahydro-2H-pyrazino[1′,2′:4,5][1,4]oxazino[2,3-c]isoindol-2-yl)piperidine-2,6-dione], the 50% inhibitory concentration (IC50) at CRBN/DDB1 was 50 to 500 nM; on ERα_LBD(GST), less than 10 nM. In addition, the DC50 at ER in MCF-7 cells (MCF-7 cells, 16 hrs treatment) was 1 to 10 nM. For the same molecule, on ER in MCF-7 cells (setting [1]), the Dmax is 50 to 75%.
For the molecule `COc1cc(N2CCC(CN3CCN4c5cc6c(cc5OC[C@@H]4C3)C(=O)N([C@H]3CCC(=O)NC3=O)C6)CC2)ccc1[C@@H]1c2[nH]c3ccccc3c2C[C@@H](C)N1CC(F)F` [Compound A28, (S)-3-((S)-3-((1-(4-((1R,3R)-2-(2,2-difluoroethyl)-3-methyl-2,3,4,9-tetrahydro-1H-pyrido[3,4-b]indol-1-yl)-3-methoxyphenyl)piperidin-4-yl)methyl)-8-oxo-1,2,3,4,4a,5,8,10-octahydro-9H-pyrazino[1′,2′:4,5][1,4]oxazino[2,3-f]isoindol-9-yl)piperidine-2,6-dione], the 50% degradation concentration (DC50) on ER in T47D cells (T47D cells, 16 hrs treatment) was less than 1 nM; at ER in MCF-7 cells (MCF-7 cells, 16 hrs treatment), less than 1 nM. Also, the “T47D ICW Dmax (%)” value on ER in T47D cells (setting [2]) was “B (“B”: >50% and <75%)”. Further, the IC50 at CRBN/DDB1 is 50 to 500 nM; on ERα_LBD(GST), less than 10 nM. For the same molecule, at ER in MCF-7 cells (MCF-7 cells, 16 hrs treatment), the “MCF7 ICW Dmax (%)” value was “C (“C”: 25%-50%)”.
`COc1cc(N2CCC(CN3CCN4c5ccc6c(c5OC[C@H]4C3)CN([C@H]3CCC(=O)NC3=O)C6=O)CC2)ccc1[C@@H]1c2[nH]c3ccccc3c2C[C@@H](C)N1CC(C)(C)F` [Compound A49, (S)-3-((R)-7-((1-(4-((1R,3R)-2-(2-fluoro-2-methylpropyl)-3-methyl-2,3,4,9-tetrahydro-1H-pyrido[3,4-b]indol-1-yl)-3-methoxyphenyl)piperidin-4-yl)methyl)-1-oxo-1,3,5,5a,6,7,8,9-octahydro-2H-pyrazino[1′,2′:4,5][1,4]oxazino[2,3-e]isoindol-2-yl)piperidine-2,6-dione]: the DC50 on ER in T47D cells (T47D cells, 16 hrs treatment) is less than 1 nM; on ER in MCF-7 cells (MCF-7 cells, 16 hrs treatment) it was less than 1 nM. Besides, the maximal degradation (Dmax) on ER in T47D cells was 50 to 75%; at ER in MCF-7 cells (setting [3]), more than 75%. For the same molecule, the half-maximal inhibitory concentration (IC50) on ERα_LBD(GST) is not below 10 nM.
For the molecule `COc1cc(N2CCC(CN3CCN(c4ccc(C(=O)N[C@H]5CCC(=O)NC5=O)nc4)CC3)CC2)ccc1[C@@H]1c2[nH]c3ccccc3c2C[C@@H](C)N1CC(F)F` [Compound A55, 5-(4-((1-(4-((1R,3R)-2-(2,2-difluoroethyl)-3-methyl-2,3,4,9-tetrahydro-1H-pyrido[3,4-b]indol-1-yl)-3-methoxyphenyl)piperidin-4-yl)methyl)piperazin-1-yl)-N—((S)-2,6-dioxopiperidin-3-yl)picolinamide], the figures for the IC50 on CRBN/DDB1 and at ERα_LBD(GST) were more than 5000 nM and less than 10 nM, respectively. Besides, the DC50 on ER in MCF-7 cells (MCF-7 cells, 16 hrs treatment) is less than 1 nM.
With `C[C@H]1Cc2c([nH]c3ccccc23)[C@H](c2cnc(N3CCC4(CC3)C[C@@H](CN3CCN5c6ccc7c(c6OC[C@@H]5C3)CN([C@@H]3CCC(=O)NC3=O)C7=O)CO4)nc2)N1CC(F)F` [Compound A59, (R)-3-((S)-7-(((S)-8-(5-((1S,3S)-2-(2,2-difluoroethyl)-3-methyl-2,3,4,9-tetrahydro-1H-pyrido[3,4-b]indol-1-yl)pyrimidin-2-yl)-1-oxa-8-azaspiro[4.5]decan-3-yl)methyl)-1-oxo-1,3,5,5a,6,7,8,9-octahydro-2H-pyrazino[1′,2′:4,5][1,4]oxazino[2,3-e]isoindol-2-yl)piperidine-2,6-dione formate], the DC50 at ER in T47D cells (T47D cells, 16 hrs treatment) was less than 1 nM; on ER in MCF-7 cells (MCF-7 cells, 16 hrs treatment), less than 1 nM. In addition, the maximal degradation (Dmax) on ER in T47D cells (setting [2]) and on ER in MCF-7 cells (setting [3]) was 50 to 75% each time. For the same molecule, the IC50 at ERα_LBD(GST) was not below 10 nM.
As for `C[C@H]1Cc2c([nH]c3ccccc23)[C@H](c2cnc(N3CCC4(CC3)C[C@@H](CN3CCN5c6cc7c(cc6OC[C@H]5C3)C(=O)N([C@@H]3CCC(=O)NC3=O)C7)CO4)nc2)N1CC(F)F` [Compound A61, (R)-3-((R)-3-(((S)-8-(5-((1S,3S)-2-(2,2-difluoroethyl)-3-methyl-2,3,4,9-tetrahydro-1H-pyrido[3,4-b]indol-1-yl)pyrimidin-2-yl)-1-oxa-8-azaspiro[4.5]decan-3-yl)methyl)-8-oxo-1,2,3,4,4a,5,8,10-octahydro-9H-pyrazino[1′,2′:4,5][1,4]oxazino[2,3-f]isoindol-9-yl)piperidine-2,6-dione], the DC50 on ER in T47D cells (T47D cells, 16 hrs treatment) is less than 1 nM; on ER in MCF-7 cells (MCF-7 cells, 16 hrs treatment), less than 1 nM. Further, the Dmax at ER in T47D cells (setting [2]) and at ER in MCF-7 cells (setting [3]) was 50 to 75% throughout. Further, at ERα_LBD(GST), the IC50 is not below 10 nM.
For the molecule `C[C@H]1Cc2c([nH]c3ccccc23)[C@H](c2cnc(N3CCC4(CC3)C[C@@H](CN3CCC(c5ccc(N[C@@H]6CCC(=O)NC6=O)cc5)CC3)CO4)nc2)N1CC(F)F` [Compound A66, (R)-3-((4-(1-(((S)-8-(5-((1S,3S)-2-(2,2-difluoroethyl)-3-methyl-2,3,4,9-tetrahydro-1H-pyrido[3,4-b]indol-1-yl)pyrimidin-2-yl)-1-oxa-8-azaspiro[4.5]decan-3-yl)methyl)piperidin-4-yl)phenyl)amino)piperidine-2,6-dione], the 50% degradation concentration (DC50) on ER in T47D cells (T47D cells, 16 hrs treatment) was 1 to 10 nM; on ER in MCF-7 cells (MCF-7 cells, 16 hrs treatment), less than 1 nM. For the same molecule, the Dmax at ER in T47D cells (setting [2]) was more than 75%; on ER in MCF-7 cells (setting [1]), 50 to 75%. Besides, the concentration for half-maximal inhibition (IC50) on CRBN/DDB1 fell in the range of 50 to 500 nM.
The like results for `C[C@H]1Cc2c([nH]c3ccccc23)[C@H](c2cnc(N3CCC4(CC3)C[C@H](CN3CCC(c5ccc(N[C@H]6CCC(=O)NC6=O)cc5)CC3)CO4)nc2)N1CC(F)F` [Compound A67, (S)-3-((4-(1-(((R)-8-(5-((1S,3S)-2-(2,2-difluoroethyl)-3-methyl-2,3,4,9-tetrahydro-1H-pyrido[3,4-b]indol-1-yl)pyrimidin-2-yl)-1-oxa-8-azaspiro[4.5]decan-3-yl)methyl)piperidin-4-yl)phenyl)amino)piperidine-2,6-dione] were, in that order, less than 1 nM, less than 1 nM, 50 to 75%, 50 to 75% and 500 to 5000 nM.
On to `C[C@@H]1Cc2c([nH]c3ccccc23)[C@@H](c2cnc(N3CCC4(CC3)C[C@@H](CN3CCC(c5ccc(N[C@@H]6CCC(=O)NC6=O)cc5)CC3)CO4)nc2)N1CC(F)F` [Compound A70, (3R)-3-((4-(1-((8-(5-((1R,3R)-2-(2,2-difluoroethyl)-3-methyl-2,3,4,9-tetrahydro-1H-pyrido[3,4-b]indol-1-yl)pyrimidin-2-yl)-1-oxa-8-azaspiro[4.5]decan-3-yl)methyl)piperidin-4-yl)phenyl)amino)piperidine-2,6-dione], for which the DC50 was less than 1 nM on ER in T47D cells (T47D cells, 16 hrs treatment) and less than 1 nM on ER in MCF-7 cells (MCF-7 cells, 16 hrs treatment). For the same molecule, the Dmax is more than 75% on ER in T47D cells (setting [2]) and 50 to 75% at ER in MCF-7 cells (setting [1]). In addition, the IC50 at ERα_LBD(GST) is less than 10 nM.
